# Results published in US12503484B2, “Androstane derivatives with activity as pure or predominantly pure stimulators of SERCA2a for the treatment of heart failure” (Seismic Pharmaceuticals, priority 2019, dated 2025).
# “Also recorded” adds a separate entry of the source. Like-named read-outs stand apart in the source and are kept apart here.
# Columns and labels:
# [1] = molecular target: dog renal Na^+/K^+ ATPase (Canis lupus familiaris (Dog) (Canis familiaris), UniProt P50997); assay: biochemical; conditions: IC50 inhibition of dog renal Na+/K+ ATPase, purified dog kidney enzyme;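 note: enzyme preincubated with inhibitor 10 min at 37 °C, then K^+ and ^32P-ATP added for 15 min, released ^32P counted, activity relative to untreated control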
# Text: Inhibition of Dog Renal Na^+/K^+ ATPase Activity
# The compounds were thus tested for their inhibitory effect on the canine renal Na^+/K^+ ATPase enzyme.
# Kidneys were excised from 1-3 year-old male beagle dogs (WuXi AppTec, Suzhou Co., Ltd. 1318 Wuzhong Ave., Wuzhong District Suzhou, 215104 P.R. China) under pentobarbital anesthesia (Import Authorization from Italian Health Ministry 0009171-09/04/2015-DGSAF-COD_UO-P, 2015). Kidneys were sliced and the outer medulla was dissected and suspended (1 g/10 ml) in a sucrose-histidine solution containing 250 mM sucrose, 30 mM histidine, and 5 mM EDTA, pH 7.2. The tissue was homogenized by using an Ultra Turrax homogenizer. The sample was centrifuged at 6,000 g for 15 min. Next, the supernatant was decanted and centrifuged at 48,000 g for 30 min. The pellet was suspended in the sucrose-histidine buffer and incubated for 20 min with a sodium-dodecyl-sulphate (SDS) solution dissolved in a gradient buffer containing 25 mM imidazole and 1 mM EDTA, pH 7.5. The sample was layered on the top of a sucrose discontinuous gradient (10, 15, and 29.4%) and centrifuged at 60,000 g for 115 min. The pellet was suspended in the gradient buffer.
# Increasing concentrations of the standard ouabain, or tested compound, were incubated with 0.3 μg of purified dog kidney enzyme for 10 min at 37° C. in 120 μl final volume of a medium containing 140 mM NaCl, 3 mM MgCl2, 50 mM Hepes-Tris, 3 mM ATP, pH 7.5. Then, 10 μl of a solution containing 10 mM KCl and 20 nCi of ^32P-ATP (3-10 Ci/mmol, Perkin Elmer) were added. The reaction was allowed to continue for 15 min at 37° C. and then stopped by acidification with 20% v/v ice-cold perchloric acid. ^32P was separated by centrifugation with activated Charcoal (Norit A, Serva) and the radioactivity was counted. The inhibitory activity was expressed as percent of the control samples carried out in the absence of ouabain, or tested compound.
# [2] = tested on: guinea-pig ventricular myocytes; assay: Action potential measurements in guinea-pig ventricular myocytes; format: cell-based; conditions: 1 μM; for action potential duration (APD90) / diastolic membrane potential (Ediast) / maximum depolarization velocity (dV/dtmax) / rate-dependency of each AP parameter: 0.5-1-2-4 Hz; for slope of linear fit STV vs mean APD90: all pacing rates pooled; for short term APD variability (STV) and its dependency on mean APD: pacing rates 0.5-1-2 and 4 Hz
# Method: (§1) The compounds were characterized for their effect on (i) SR Ca^2+ uptake function and (ii) action potential (AP) in myocytes freshly dissociated from rat and guinea-pig ventricles, respectively, by retrograde coronary perfusion with enzymatic solution (Rocchetti M et al., J Pharmacol Exper Therap 2005, 313(1):207-215).
# Cvie216 and Cvie214 effects on action potential parameters were evaluated at the concentration of 1 μM modulating SERCA2a in guinea-pig myocytes. The action potential (AP) contour provides a first-line estimate of the integrated function of membrane ion channels, and its changes may disclose ancillary actions—potentially resulting in untoward effects of the compound. To increase sensitivity of the AP contour as a reporter, effects on the rate-dependency of AP parameters were also tested, thus providing a multiparametric (more stringent) approach. AP were recorded in guinea-pig ventricular myocytes because the AP contour reproduces the human AP. […] Statistical analysis was performed by a “group comparison” model.
# APs were recorded in normal Tyrode's solution at 36.5° C. in guinea-pig ventricular myocytes. The following parameters were measured at 4 stimulation rates (0.5-1-2-4 Hz): diastolic membrane potential (Ediast), maximum depolarization velocity (dV/dtmax), action potential duration (APD at 90% of repolarization). Short term APD variability (STV) during steady-state pacing, an index of repolarization stability, was measured as the sum of absolute orthogonal deviations from the identity line in the APDnfAPDn+1 plot (Poincare plot) (Altomare C et al., Circulation A&E 2015, 8:1265-1275).
# SERCA2a = SERCA2a (Cavia porcellus, UniProt A0A286XD73); assay: SERCA2a ATPase activity in heart-derived SR microsomes from normal guinea-pig; format: biochemical
# Sequence of SERCA2a (A0A286XD73 1-997): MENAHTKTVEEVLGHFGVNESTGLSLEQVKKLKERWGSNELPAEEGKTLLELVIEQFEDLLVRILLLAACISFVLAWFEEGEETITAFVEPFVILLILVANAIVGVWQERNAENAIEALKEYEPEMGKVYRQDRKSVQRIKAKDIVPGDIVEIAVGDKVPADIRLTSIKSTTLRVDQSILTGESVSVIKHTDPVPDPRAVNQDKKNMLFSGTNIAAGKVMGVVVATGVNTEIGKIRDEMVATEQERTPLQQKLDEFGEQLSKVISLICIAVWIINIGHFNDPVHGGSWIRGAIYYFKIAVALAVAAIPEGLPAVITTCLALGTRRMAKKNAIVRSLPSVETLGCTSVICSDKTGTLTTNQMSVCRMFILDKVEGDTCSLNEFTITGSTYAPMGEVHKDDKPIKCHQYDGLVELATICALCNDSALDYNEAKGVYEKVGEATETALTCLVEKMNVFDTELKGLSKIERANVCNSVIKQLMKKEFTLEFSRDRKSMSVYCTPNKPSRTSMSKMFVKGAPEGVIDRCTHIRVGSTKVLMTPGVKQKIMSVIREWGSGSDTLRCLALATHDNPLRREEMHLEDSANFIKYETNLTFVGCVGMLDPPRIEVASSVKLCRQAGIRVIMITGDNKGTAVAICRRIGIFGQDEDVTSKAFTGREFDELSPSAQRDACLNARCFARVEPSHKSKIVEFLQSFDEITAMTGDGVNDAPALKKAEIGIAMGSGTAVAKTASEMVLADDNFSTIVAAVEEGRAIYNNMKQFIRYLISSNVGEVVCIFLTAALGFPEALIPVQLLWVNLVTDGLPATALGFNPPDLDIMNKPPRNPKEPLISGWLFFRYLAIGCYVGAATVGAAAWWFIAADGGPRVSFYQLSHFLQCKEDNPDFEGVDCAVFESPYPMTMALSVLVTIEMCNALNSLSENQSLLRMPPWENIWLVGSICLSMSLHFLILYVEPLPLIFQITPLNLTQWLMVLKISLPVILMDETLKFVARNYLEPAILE
# Method: SERCA2a ATPase Activity in Heart-Derived SR Microsomes from Normal Quinea-Pig
# SERCA2a activity was measured in vitro as ^32P-ATP hydrolysis at different Ca^2+ concentrations (100-4000 nM) in the absence and presence of the tested compounds, as described (Micheletti R. et al., Am J Card 2007, 99:24A-32A). Increasing concentrations of each compound (ranging from 1 to 200 nM) were pre-incubated with 2 μg of SERCA2a enriched microsomes for 5 min at 4° C. in 80 μl of a solution containing 100 mM KCl, 5 mM MgCl2, 1 μM A23187, 20 mM Tris, pH 7.5. […] SERCA2a-dependent activity was identified as the portion of total hydrolytic activity inhibited by 10 μM cyclopiazonic acid (Seidler N W et al., J Biol Chem. 1989, 264:17816-23).
# Dose-response curves were fitted by using a sigmoidal equation and the activity at the maximal velocity (Vmax) and the Kd for Ca^2+ were calculated (Synergy Software KaleidaGraph 3.6). The effect of the compounds in normal guinea-pig preparations was expressed as % decrease of Kd Ca^2+ (implying an increase of affinity for Ca^2+) of a control sample run in the absence of compound (Table 2). […] Data are mean±SD, n=number of experiments, *at least p<0.05.
# [3] = tested on: rat ventricular myocytes isolated from STZ rats; assay: SR Ca2+ uptake function in ventricular myocytes from STZ rats (loading protocol); format: cell-based; conditions: 1 μM
# Text: as §1
# To test the effects of the compounds in a model of diastolic dysfunction, Sprague Dawley male rats (150-175 g) were made diabetic by a single tail vein injection of streptozotocin (STZ 50 mg/kg, Sigma-Aldrich). STZ was freshly prepared in 0.1 M sodium citrate buffer at pH 4.5. Fasting glycaemia was measured after 1 week and rats with values >300 mg/dl were considered diabetic. Drug effects on SR Ca^2+ uptake function were evaluated in isolated left ventricular myocytes 9 weeks after STZ injection. Myocytes were incubated for at least 30 min in the presence of a specific drug to guarantee its cell membrane permeation. Statistical analysis was performed by a “group comparison” model.
# Drug effects on SR Ca^2+ uptake rate were evaluated with a SR “loading protocol” specifically devised to rule out the contribution of the Na/Ca exchanger (NCX) and to assess the uptake rate starting at low levels of SR Ca^2+ loading. Under voltage-clamp conditions, intracellular Ca^2+ concentration was dynamically measured by epifluorescence (Fluo4-AM). Membrane current, whose time-dependent component mainly reflected ICaL, was simultaneously recorded. The SR loading protocol consisted in emptying the SR by a brief caffeine pulse and then progressively refilling it by voltage steps activating Ca^2+ influx through the sarcolemmal Ca^2+ channel (ICaL). NCX was blocked by omission of Na^+ from intracellular and extracellular solutions. The procedure is in agreement with published methods, with minor modifications (Rocchetti M et al., J Pharmacol Exper Therap 2005, 313:207-215).
# Drug effects on SR Ca^2+ uptake were analyzed by considering multiple parameters: the rate at which 1) Ca^2+ transient (CaT) amplitude and 2) the Ca^2+ induced Ca^2+ release (CICR) gain increased during the loading protocol, reflecting the rate at which the SR refilled and the gain of the system, 3) the time constant of cytosolic Ca^2+ decay (τdecay) within each pulse, reflecting net Ca^2+ transport rate (by SERCA2a) across the SR membrane (a decrease in τdecay corresponds to enhanced SR Ca^2+ uptake).
# STZ diabetic rats = assay: Haemodynamics in streptozotocin diabetic rats (echocardiography); format: in vivo, rat; conditions: after 15 min IV infusion 0.2 mg/kg/min
# Method: CVie214 and CVie216 were tested in a diabetic rat model. Briefly, rats were injected with streptozotocin (STZ). After 7-9 weeks from STZ injection, rats were submitted to transthoracic echocardiographic and Doppler evaluation performed under urethane anesthesia. Two-dimensionally guided M-mode recordings were used to obtain short-axis measurements of left ventricular end-diastolic diameter (LVEDD), left ventricular end-systolic diameter (LVESD), posterior (PW) and septal (SW) diastolic wall thickness according to the American Society of Echocardiography guidelines (Lang R M et al., Eur J Echocardiography 2006, 7:79-108). Fractional shortening was calculated as FS=(LVEDD−LVESD)/LVEDD. Relative wall thickness was calculated as PWTd+IVSTd/LVEDD. Mitral inflow was measured by pulsed Doppler at the tips of mitral leaflets from an apical 4-chamber view to obtain early and late filling velocities (E, A) and deceleration time of early filling velocity (DT). The deceleration slope was calculated as E/DT ratio. The mitral deceleration index was calculated as DT/E ratio. Tissue Doppler Imaging (TDI) was evaluated from the apical 4-chamber view to record septal mitral annular movements, i.e., peak myocardial systolic (s′) and early and late diastolic velocity (e′ and a′).
# After baseline hemodynamic measurements were taken, the rats were administered Digoxin, CVie214, CVie216 and compared to control. Digoxin, used as reference drug, was intravenously infused at 0.11 mg/kg/min for 15 min and echocardiographic parameters measured after 1 h. CVie214-salt and CVie216-salt were intravenously infused in STZ diabetic rats at 0.2 mg/kg/min and echocardiographic parameters were measured after 15 min and 30 min.
# Tables 4-6 show the haemodynamic parameters in STZ diabetic rats for Digoxin, CVie214-salt, and Cvie216-salt.
# [4] = Acute toxicity in the mouse; conditions: Albino Swiss CD-1, in vivo
# Method: The acute toxicity of the tested compound CVie214-salt and CVie216-salt have been determined in the mouse (Albino Swiss CD-1, body weight 30 g). Compounds have been orally administered or intravenously injected at increasing doses to identify the dose causing 50% mortality. Mortality occurred within 30 min after the administration and survival after 24 h.
# As comparison, the acute toxicity for the reference compounds Digoxin and Istaroxime were also included. Digoxin refers to literature data (www.lookchem.com, Reference for Digoxin intravenous: Afifi A M, Ammar E M. Pharmacological Research Communications. Vol. 6, Pg. 417, 1974; Reference for Digoxin oral: Archives Internationales de Pharmacodynamie et de Therapie. Vol. 153, Pg. 436, 1965) (Table 3).
# [5] = read-out: Kd Ca2+ (nM) mean ± SD, compound 1 nM
# [6] = read-out: Kd Ca2+ (nM) mean ± SD, compound 10 nM
# [7] = read-out: Kd Ca2+ (nM) mean ± SD, compound 100 nM
# [8] = read-out: Kd Ca2+ (nM) mean ± SD, compound 200 nM
Structure (SMILES),IC50 [1] [nM],action potential duration (APD90) [2],diastolic membrane potential (Ediast) [2],maximum depolarization velocity (dV/dtmax) [2],rate-dependency of each AP parameter [2],slope of linear fit STV vs mean APD90 [2],short term APD variability (STV) and its dependency on mean APD [2],Kd (SERCA2a; [5]) [nM],Kd (SERCA2a; [6]) [nM],Kd (SERCA2a; [7]) [nM],Kd (SERCA2a; [8]) [nM],Ca2+ transient (CaT) amplitude / rate of CaT increment during SR reloading [3],Ca2+ uptake by the SR [3],Ca2+-induced Ca2+ release (CICR) gain [3],time constant of Ca2+ decay (τdecay) [3],also measured
"C[C@]12CC[C@H](CC(=O)O)CC1C(O)CC1C2CC[C@]2(C)C(=O)CCC12 (stereo in doubt) [CVie216, 2-(6beta-hydroxy-17-oxoandrostane-3-yl) acetic acid]",> 100000,did not affect,did not affect,did not affect,did not affect,0.009,not significantly affected,529 ± 75.8,465 ± 73.4,443 ± 85.1,463 ± 76.3,statistically significant; also recorded: increased,significantly increased,increase,reduction,
"C[C@]12CC[C@H](CCCC(=O)O)CC1[C@@H](O)CC1C2CC[C@]2(C)C(=O)CCC12 (stereo partly drawn) [CVie214, 4-(6alpha-hydroxy-17-oxoandrostane-3-yl) butyric acid]",> 100000,did not affect,did not affect,did not affect,did not affect,0.014,not significantly affected,474 ± 40.4,467 ± 62.4,427 ± 48.9,409 ± 60.1,failed to significantly increase,significantly increased,affected by the drug as expected from SERCA2a enhancement,close to significance; also recorded: affected by the drug as expected from SERCA2a enhancement,"HR heart rate (STZ diabetic rats): modestly, but significantly, increased; s′ TDI contraction velocity (STZ diabetic rats): modestly, but significantly, increased"
"C[C@]12CC/C(=N/OCCN)C[C@@H]1C(=O)C[C@@H]1[C@@H]2CC[C@]2(C)C(=O)CC[C@@H]12 [Istaroxime, (3Z,5a)-3-[(2-aminoethoxy)imino]androstane-6,17-dione, reference compound]",140,,,,,,,,,,,,,,,"LD50 at 24 h ([4]; iv): 29 to 32 mg/kg; LD50 at 24 h ([4]; oral, os): 200 mg/kg; Kd (SERCA2a; compound 1 nM, read-out: Kd Ca2+ (nM) mean ± SD): 524 ± 57.4 nM; Kd (SERCA2a; compound 10 nM, read-out: Kd Ca2+ (nM) mean ± SD): 464 ± 52.4 nM; Kd (SERCA2a; compound 100 nM, read-out: Kd Ca2+ (nM) mean ± SD): 462 ± 59.1 nM"
